Experimental data taken from patent US7317002B2, “Site-specific preparation of polyethylene glycol-GRF conjugates” (Applied Research Systems ARS Holding N.V., priority 1997, dated 2008).
No end group written: not given here.

Tests used:
[1] = molecular target: T1, human growth hormone releasing factor receptor (hGRF-R) (Homo sapiens, UniProt Q02643); experiment: CHO-hGRFR-LUC in vitro assay (luciferase reporter gene assay); assay type: cell-based; details: DMSO and nicotinamide preparations; FIGS. 5-7
T1 construct: expressed in transfected cells; host or cells: CHO-DUKX (clone CHO-hGRFR-LUC 1-11-20)
T1 sequence (Q02643 23-423): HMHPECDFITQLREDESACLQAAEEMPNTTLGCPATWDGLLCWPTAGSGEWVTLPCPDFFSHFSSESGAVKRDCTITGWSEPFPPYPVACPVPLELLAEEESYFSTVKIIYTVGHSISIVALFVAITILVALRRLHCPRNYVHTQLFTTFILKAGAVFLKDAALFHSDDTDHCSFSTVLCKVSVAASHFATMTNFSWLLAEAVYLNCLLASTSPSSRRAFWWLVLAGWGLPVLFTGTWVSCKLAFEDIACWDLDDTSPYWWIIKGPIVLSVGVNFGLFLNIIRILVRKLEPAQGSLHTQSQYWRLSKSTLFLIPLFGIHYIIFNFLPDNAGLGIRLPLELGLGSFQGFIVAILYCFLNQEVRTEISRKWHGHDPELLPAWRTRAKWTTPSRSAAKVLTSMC
Excerpt: CHO-hGRFR-LUC in Vitro Assay
CHO-hGRFR-LUC (clone 1-11-20) is a cloned cell line that had been obtained by cotransfection of the pcDNA3-hGRF-R and pTF5-53 LUC vectors into CHO-DUKX cell line.
The plasmid pcDNA3-hGRF-R was constructed by inserting the human growth hormone releasing factor receptor (hGRF-R) cDNA into pcDNA3 expression vector. The Bluescript plasmid containing hGRF-R cDNA was kindly provided by Dr. B. Gaylinn (University of Virginia) the pcDNA3 mammalian expression vector was obtained from Invitrogen. The hGRF-R coding sequence was driven by the human cytomegalovirus (CMV) promoter.
The plasmid pTF5-53LUC was constructed by inserting the c-fos cAMP response element along with its endogenous promoter upstream of the luciferase coding sequence in plasmid poLuc. The cAMP response element and the c-fos promoter were obtained from the plasmid pTF5-53 (described in Fish et al, 1989). The promoterless reporter gene vector (poLuc) with multiple cloning sites upstream of the luciferase coding sequence was obtained from Dr. Brasier (University of Texas, Galveston).
These CHO-DUKX cells obtained by the above co-transfection were routinely grown in MEM alpha medium containing ribonucleosides and deoxyribonucleosides and supplemented with 10% fetal calf serum plus 600 μg/ml geneticin G418 sulfate.
The cells were seeded (40,000 cells/well) in white 96-well plates (Dynatech) and incubated for 16-18 hrs in 200 μl growth medium before the assay.
The next day, the medium was removed and replaced with a medium containing different concentrations of hGRF(1-29) in-house reference standard (Bachem) or different hGRF-PEG conjugates before incubating the plates at 37° C., 5% CO2 for two hours. At the end of incubation, CHO-hGRFR-LUC cells were washed twice with 200 μl of PBS (Sigma) and then lysed by adding 50 μl of a cell culture lyses reagent (Promega) to each well. After a further 15-minute incubation at room temperature, the plates were read in a luminometer (Dynatech) after introducing 150 μl of a luciferase assay reagent (Promega).
As an alternative method, CHO-hGRFR-LUC cells, seeded at 50,000 cells/well, at the end of incubation with different hGRF-PEG conjugates, were washed with PBS, as above discussed. To each well 100 μl PBS containing calcium and magnesium ions was added, prior to addition of 100 μl of Luclite (Packard). After 10 minutes incubation at room temperature, plates were read in luminometer (Lumicount-Packard).
Results were expressed as relative light unit (RLU).

GH serum levels = experiment: In vivo assay: serum GH levels after i.v. injection in male rats; set-up: species or system Sprague-Dawley rats; details: for GH serum levels induced, compared with hGRF1-29: 400 μg i.v., rats, DMSO preparations, FIG. 11A
Experimental: (§1) SPF adult male Sprague-Dawley rats, 200-250 g b.w, supplied by Charles River, are used after an acclimatisation period of at least 7 days.
(§2) The animal was injected i.v. with hGRF(1-29) (400 μg/rat). A few minutes before blood collection, the animal was anaesthetized (ketamine-xylazine). […] The sample was divided into two aliquots: 1 ml was collected as such and serum was obtained after an incubation period of about 3 hours at 37° C. and subsequent centrifugation; the remaining 1 ml was collected into a vial containing 50 μl of a 4 mg/ml heparin solution, immediately stored on ice and plasma was obtained after centrifugation at 4° C.
(§3) Blood samples were collected at different time points from the injection of the test compound using different animals. In each experimental session a total of three rats for each time point was used.
(§4) Plasma and serum samples were immediately frozen and stored at −20° C.
(§5) GH serum levels were measured by a commercial RIA kit; hGRF plasma levels were measured by a commercial RIA kit for hGRF(1-44).

[2] = Solubility in aqueous buffer; assay type: physicochemical; details: water solution at neutral or slightly alkaline pH
[3] = In vivo assay: plasma hGRF levels after i.v. injection in male rats; set-up: species or system Sprague-Dawley rats
Experimental: as §1, §2, §3, §4, §5

[4] = cited from earlier work
rat pituitary cell = experiment: In vitro rat pituitary cell bioassay (GH release); assay type: cell-based; details: two DMSO preparations; FIGS. 8 and 9
Experimental: In vitro rat pituitary cell bioassay for hGRF(1-29)
The animals (SPF male Sprague-Dawley rats 200 g, b.w.) were sacrificed by CO2 inhalation and the pituitaries removed. The tissue was finely minced and put into a bottle with the enzyme solution for tissue digestion. The bottle was placed in an incubator at 37° C. for 1 hour.
The digested tissue was recovered and the cells washed twice, counted and adjusted to a concentration of 5×10^5/ml. The cells were plated out in a 48-well plate (200 μl/well) and the plate placed in an incubator for 72 hrs.
After 72 hrs the cells were incubated with different concentrations of hGRF for 4 hours. At the end of the incubation period the supernatants were collected and stored at −80° C.
The GH content in each sample was assayed by a commercial rat GH radioimmunoassay kit.

Compound | biological effect (activity) in the CHO-hGRFR-LUC in vitro assay [1] | GH serum levels induced, compared with hGRF1-29 (GH serum levels) | other results
[Lys(MPEG5,000—CH2—CO—Nle—CO)^12-hGRF(1-29)—NH2] [GRF-1PEG 2nd peak] | more active than the GRF-2PEG and GRF-3PEG | comparable to those obtained with hGRF1-29 | –
CC[C@H](C)[C@H](NC(=O)[C@H](C)NC(=O)[C@H](CC(=O)O)NC(=O)[C@H](C)NC(=O)[C@@H](N)Cc1ccc(O)cc1)C(=O)N[C@@H](Cc1ccccc1)C(=O)N[C@H](C(=O)N[C@@H](CC(N)=O)C(=O)N[C@@H](CO)C(=O)N[C@@H](Cc1ccc(O)cc1)C(=O)N[C@@H](CCCNC(=N)N)C(=O)N[C@@H](CCCCN)C(=O)N[C@H](C(=O)N[C@@H](CC(C)C)C(=O)NCC(=O)N[C@@H](CCC(N)=O)C(=O)N[C@@H](CC(C)C)C(=O)N[C@@H](CO)C(=O)N[C@@H](C)C(=O)N[C@@H](CCCNC(=N)N)C(=O)N[C@@H](CCCCN)C(=O)N[C@@H](CC(C)C)C(=O)N[C@@H](CC(C)C)C(=O)N[C@@H](CCC(N)=O)C(=O)N[C@@H](CC(=O)O)C(=O)N[C@H](C(=O)N[C@@H](CCSC)C(=O)N[C@@H](CO)C(=O)N[C@@H](CCCNC(=N)N)C(N)=O)[C@@H](C)CC)C(C)C)[C@@H](C)O [hGRF, hGRF(1-29)—NH2, reference compound] | No difference | – | solubility in neutral/alkaline buffer solution [2]: low solubility; plasma hGRF concentrations up to 60 min ([3]; 400 μg/rat i.v., male rats, FIG. 10): maintained a sustained level; Tmax ([3]; male, Sprague-Dawley, rat, in vivo, iv, 400 ug/animal): 10 min; time at which serum GH returned to basal levels (GH serum levels; 400 μg/rat i.v., male rats): 60 min; time of serum GH peak after i.v. injection (GH serum levels; 400 μg/rat i.v., male rats): 10 min
GRF: peptide secreted by the hypothalamus which promotes the release of growth hormone; exists as 44-, 40-, or 37-amino acid peptide | – | – | biological half-life [4]: 12 to 30 minutes
[Lys(MPEG5,000—CH2—CO—Nle—CO)^21-hGRF(1-29)—NH2] [GRF-1PEG 1st peak] | more active than the GRF-2PEG and GRF-3PEG | comparable to those obtained with hGRF1-29 | GH release from rat pituitary cell in vitro (rank of activity) (rat pituitary cell): the most active compound
N^α-(PEG5,000—CH2—CO—Nle—CO)[Lys(MPEG5,000—CH2—CO—Nle—CO)^12,21-hGRF(1-29)—NH2] [GRF-3PEG] | – | lower activity | GH release from rat pituitary cell in vitro (rank of activity) (rat pituitary cell): then GRF-3PEG
hGRF(3-29) (DAIFTNSYRKVLGQLSARKLLQDIMSR; ends and bridges not checked; UniProt P01286 34-60, looked up, fragment) [Human GRF3-29, two preparations, supplied by Bachem and by ISL, reference compound] | did not possess a significant in vitro activity | – | –
[Lys(MPEG5,000—CH2—CO—Nle—CO)^12,21-hGRF(1-29)—NH2] [GRF-2PEG] | – | comparable to those obtained with hGRF1-29 | –
